Tests used:
[1] = molecular target: C-Raf Raf-1 (truncated), active (Homo sapiens, UniProt P04049, Y340D/Y341D); assay: C-Raf kinase inhibition (MAPH assay / IMAP assay); settings: read-out: Biochemical IC50 C-Raf
Source text: We characterized the in vitro inhibitory activity against protein kinases of compounds of the present invention by determining their IC50 values (see Table 2).
Kinase: C-Raf Raf-1 (truncated), active (Upstate; cat. no. 14-352)
Reaction Temperature: room temperature
Assay Plate: 96 well U bottom plate (Greiner, 650161)
MultiScreen-PH Plate: 96 well MAPH Filter Plates (Millipore, MAPHNOB50)
Filter Washing Solution: 0.75% H3PO4
Scintillation Liquid: Supermix Liquid Scintillator (PerkinElmer, 1200-439)
Negative Control (C−): 100 mM EDTA, no inhibitor
Positive Control (C+): no inhibitor
Reaction Buffer (Final Concentration):
Final Assay Concentrations:
Kinase: Use kinase conc. yielding 10% ATP turnover as determined in titration experiment.
Adenosine 5′-[γ-^33P]triphosphate: 12.5 μCi/ml (Amersham Biosciences, BF1000)
Substrate: Myelin Basic Protein 57.8 μM (Invitrogen, 13228-010)
Pipetting Sequence: • 1) Add 10 μl 4-fold concentrated substrate+4-fold concentrated ATP in 3-fold concentrated reaction buffer to each well of assay plate • 2) Add 10 μl […] concentrated inhibitor in 4% DMSO in H2O to each well except to C− and C+ wells (starting point: final inhibitor concentration 10 μM; IC50 determination based on dilution series) • 3) Add 10 μl 4% DMSO in H2O to C− and C+ wells • 4) Add 10 μl 500 mM EDTA in H2O to C− wells • 5) Add 10 μl 50 μCi/ml adenosine 5′-[γ-^33P]triphosphate in H2O to each well • 6) Add 10 μl […] concentrated kinase in Reaction Buffer to each well • 7) Incubate 1 hr at room temperature • 8) Add 10 μl 50 mM EDTA in H2O to each well except to C− wells • 9) Prepare MAPH plates by adding 200 μl 0.75% H3PO4 to each well • 10) Exhaust 0.75% H3PO4 using Millipore vacuum station • 11) Add 60 μl 0.75% H3PO4 to each well of MAPH filter plate • 12) Transfer 30 μl sample per well from assay plate to corresponding well of MAPH filter plate • 13) Incubate 30 min at room temperature • 14) Wash each well of MAPH filter plates 3× with 200 μl 0.75% H3PO4 using Millipore vacuum station • 15) Add 20 μl scintillation liquid to each well of MAPH filter plate • 16) Seal MAPH filter plate • 17) Store MAPH filter plate 30 min in darkness • 18) Quantify radioactivity using scintillation counter (MicroBeta, Perkin-Elmer)
Reaction Volume: 8.0108 μl
IMAP Incubation Time: 60 min
Assay Plate: 384 well U bottom, PP, black, low volume (Corning, 3676)
Compound Plate: 384 well U bottom, PS (Falcon, 3995)
IMAP Binding Buffer A: Molecular Devices, R7282
IMAP Binding Buffer B: Molecular Devices, R7283
IMAP Binding Reagent: Molecular Devices, R7207
Negative Control (C−): no kinase, no inhibitor
Reation buffer: 20 mM Hepes, pH 7.5 • 1 mM DTT • 10 mM MnCl2 • 0.01% Brij35
Kinase: Kinase conc. yielding 50% substrate turnover as determined in titration experiment • c-Raf (Upstate 14-352)
Substrate: 5F1-SGQLIDSMANSFV-NH2 400 nM (jpt Peptide Technologies GmbH, Berlin, Germany)
IMAP Binding Solution: 75% IMAP Binding Buffer A • 25% IMAP Binding Buffer B • IMAP Binding Reagent 1:800
Pipetting Sequence: • 1) Add 6 μl 1.33-fold concentrated substrate+1.33-fold concentrated ATP in 1-fold concentrated reaction buffer to each well of assay plate • 2) Add 10.8 nl 740-fold concentrated inhibitor in 100% DMSO to each well except to C− and C+ wells using pintool (CyBio, Jena, Germany) (starting point: final inhibitor concentration 10 μM; IC50 determination based on dilution series) • 3) Add 10.8 nl 100% DMSO to C− and C+ wells using pintool • 4) Add 2 μl reaction buffer to C− wells • 5) Add 2 μl 4-fold concentrated kinase in reaction buffer to each well except C− wells • 6) Incubate according to reaction time at room temperature • 7) Add 15 μl IMAP binding solution to each well • 8) Incubate according to IMAP incubation time at room temperature • 9) Measure fluorescence polarization (Analyst GT, Molecular Devices)

B-Raf delta1-415 = B-Raf delta1-415 (Homo sapiens, UniProt P15056); assay: B-Raf kinase inhibition (MAPH filter plate, 33P-ATP, MEK1 substrate); settings: read-out: Biochemical IC50 B-Raf
Summary of the method: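 IC50 values come from dilution series (top 10 μM) measured by scintillation counting of 33P-labelled MEK1 retained on H3PO4-washed filters. Reactions ran 1 h at room temperature in pH 7.0 Mops buffer with MgCl2, MnCl2 and DTT, using 12.5 μCi/ml [γ-33P]ATP and B-Raf delta1-415 titrated to 50% turnover.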

HT-29 tumor cells = assay: Anti-proliferative activity, SRB assay; type: cell-based, human; settings: Homo sapiens, HT-29, 72 h, 72 hours exposure, read-out: CELLULAR IC50 HT-29
Summary of the method: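 IC50 derived from % inhibition relative to DMSO controls, measured by sulforhodamine B binding (OD570) after TCA fixation. Cells (3,000-15,000 per well) were seeded a day ahead, then treated with graded compound concentrations for 72 hours.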

C-Raf Raf-1 (truncated), active, sequence (P04049 306-648 Y340D/Y341D): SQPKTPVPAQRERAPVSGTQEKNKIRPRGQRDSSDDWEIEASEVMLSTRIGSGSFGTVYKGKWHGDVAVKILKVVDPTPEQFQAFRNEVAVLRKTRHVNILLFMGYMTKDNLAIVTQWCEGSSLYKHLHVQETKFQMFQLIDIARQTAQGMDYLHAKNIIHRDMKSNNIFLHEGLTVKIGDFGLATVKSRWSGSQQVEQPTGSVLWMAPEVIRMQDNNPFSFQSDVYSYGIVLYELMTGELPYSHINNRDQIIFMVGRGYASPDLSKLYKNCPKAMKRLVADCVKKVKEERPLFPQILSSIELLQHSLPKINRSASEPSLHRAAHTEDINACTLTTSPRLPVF
B-Raf delta1-415, sequence (P15056 416-766): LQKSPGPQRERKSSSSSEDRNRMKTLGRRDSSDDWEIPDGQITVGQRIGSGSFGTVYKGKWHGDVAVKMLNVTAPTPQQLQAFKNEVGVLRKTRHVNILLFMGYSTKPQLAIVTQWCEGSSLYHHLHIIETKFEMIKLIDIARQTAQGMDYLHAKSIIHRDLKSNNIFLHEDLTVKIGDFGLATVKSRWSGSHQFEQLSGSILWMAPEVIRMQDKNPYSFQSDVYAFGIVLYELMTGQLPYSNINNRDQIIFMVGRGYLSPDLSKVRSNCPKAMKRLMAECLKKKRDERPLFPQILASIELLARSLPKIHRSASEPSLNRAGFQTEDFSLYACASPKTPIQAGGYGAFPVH

Row | IC50 [1] | IC50 (B-Raf delta1-415) | IC50 (HT-29 tumor cells) | SMILES
1 | < 500 nM | < 10000 nM | < 10000 nM | COc1ccc(OC)c(-c2cc3cnc(Nc4ccccc4)nc3n(OC)c2=O)c1 [Compound 60]
2 | < 500 nM | > 1000 nM | < 1000 nM | COn1c(=O)c(-c2cc(NC(=O)c3cccc(C(F)(F)F)c3)ccc2Cl)cc2cnc(Nc3ccccc3)nc21 [Compound 35]
3 | < 100 nM | < 500 nM | < 10000 nM | COCCNc1ncc2cc(-c3cc(NC(=O)c4ccccc4)ccc3Cl)c(=O)n(OC)c2n1 [Compound 33]
4 | < 100 nM | < 100 nM | < 1000 nM | COn1c(=O)c(-c2c(F)cccc2Cl)cc2cnc(Nc3ccc(OCCN(C)C)cc3)nc21 [Compound 8, 6-(2-Chloro-6-fluorophenyl)-8-methoxy-2-(4-(2-dimethylaminoethoxy)-phenylamino)-pyrido[2,3-d]pyrimidin-7-one]
5 | < 500 nM | < 500 nM | < 1000 nM | NCCOCCOn1c(=O)c(-c2c(Cl)cccc2Cl)cc2cnc(Nc3ccccc3)nc21 [Compound 58, 8-(2-(2-Aminoethyloxy)ethyl)oxy-6-(2,6-dichlorophenyl)-2-phenylamino-pyrido[2,3-d]pyrimidin-7-one]
6 | < 100 nM | < 100 nM | < 1000 nM | COn1c(=O)c(-c2c(Cl)cccc2Cl)cc2cnc(Nc3ccc(CCO)cc3)nc21 [Compound 17, 6-(2,6-Dichlorophenyl)-8-methoxy-2-(4-(2-hydroxyethyl)-phenylamino)-pyrido[2,3-d]pyrimidin-7-one]
7 | < 500 nM | < 100 nM | < 1000 nM | COc1cccc(Nc2ncc3cc(-c4c(Cl)cccc4Cl)c(=O)n(OCCN(C)C)c3n2)c1 [Compound 77, 6-(2,6-Dichlorophenyl)-8-(2-dimethylaminoethyl)oxy-2-(3-methoxyphenyl)amino-pyrido[2,3-d]pyrimidin-7-one]
8 | < 100 nM | < 500 nM | < 10000 nM | COn1c(=O)c(-c2cc(N)ccc2Cl)cc2cnc(Nc3ccccc3)nc21 [Compound 23, 6-(5-Amino-2-chlorophenyl)-8-methoxy-2-phenylamino-pyrido[2,3-d]pyrimidin-7-one]
9 | < 100 nM | < 500 nM | < 10000 nM | COn1c(=O)c(-c2ccccc2Cl)cc2cnc(Nc3ccccc3)nc21 [Compound 22, 6-(2-Chlorophenyl)-8-methoxy-2-phenylamino-pyrido[2,3-d]pyrimidin-7-one]
10 | < 100 nM | < 500 nM | < 1000 nM | COc1cccc(Cl)c1-c1cc2cnc(Nc3ccc(N4CCN(C)CC4)cc3)nc2n(OC)c1=O [Compound 39, 6-(2-Chloro-6-methoxyphenyl)-8-methoxy-2-(4-(4-methylpiperazino)-phenylamino)-pyrido[2,3-d]pyrimidin-7-one]
11 | < 100 nM | < 1000 nM | < 1000 nM | COc1cccc(Nc2ncc3cc(-c4ccccc4Cl)c(=O)n(OC)c3n2)c1 [Compound 7, 6-(2-Chlorophenyl)-8-methoxy-2-(3-methoxyphenylamino)-pyrido[2,3-d]pyrimidin-7-one]
12 | < 100 nM | > 10000 nM | < 1000 nM | COn1c(=O)c(-c2cccc(NC(=O)c3ccccc3)c2Cl)cc2cnc(Nc3ccccc3)nc21 [Compound 28]
13 | < 100 nM | < 500 nM | < 10000 nM | COn1c(=O)c(-c2c(Cl)cccc2Cl)cc2cnc(Nc3cc(C(=O)O)n(C)c3)nc21 [Compound 54, 2-(5-Carboxy-1-methyl-pyrrol-3-yl)-amino-6-(2,6-dichlorophenyl)-8-methoxy-pyrido[2,3-d]pyrimidin-7-one]
14 | < 100 nM | < 500 nM | < 1000 nM | COn1c(=O)c(-c2c(Cl)cccc2Cl)cc2cnc(Nc3cccc(CN4CCCC4)c3)nc21 [Compound 21, 6-(2,6-Dichlorophenyl)-8-methoxy-2-(3-(pyrrolidin-1-yl)methylphenylamino)-pyrido[2,3-d]pyrimidin-7-one]
15 | < 100 nM | < 100 nM | < 1000 nM | COn1c(=O)c(-c2c(Cl)cccc2Cl)cc2cnc(Nc3cccc(S(=O)(=O)CCO)c3)nc21 [Compound 10, 6-(2,6-Dichlorophenyl)-8-methoxy-2-(3-(2-hydroxyethylsulfonyl)phenylamino)-pyrido[2,3-d]pyrimidin-7-one]
16 | < 100 nM | < 500 nM | < 1000 nM | COc1cccc(Nc2ncc3cc(-c4c(C)cccc4C)c(=O)n(OC)c3n2)c1 [Compound 69, 6-(2,6-Dimethylphenyl)-8-methoxy-2-(3-methoxyphenyl)-amino-pyrido[2,3-d]pyrimidin-7-one]
17 | < 1000 nM | < 1000 nM | < 10000 nM | COn1c(=O)c(-c2ccc(Cl)c(Cl)c2)cc2cnc(Nc3ccc(N4CCN(C)CC4)cc3)nc21 [Compound 18, 6-(3,4-Dichlorophenyl)-8-methoxy-2-(4-(4-methylpiperazino)-phenylamino)-pyrido[2,3-d]pyrimidin-7-one]
18 | < 100 nM | > 1000 nM | < 10000 nM | O=c1c(-c2ccccc2Cl)cc2cnc(Nc3ccccc3)nc2n1OCC1CC1 [Compound 49, 6-(2-Chlorophenyl)-8-cyclopropylmethoxy-2-phenylamino-pyrido[2,3-d]pyrimidin-7-one]
19 | < 100 nM | < 100 nM | < 1000 nM | COn1c(=O)c(-c2c(Cl)cccc2Cl)cc2cnc(Nc3ccc(N4CCN(C)CC4)cc3)nc21 [Compound 14, 6-(2,6-Dichlorophenyl)-8-methoxy-2-(4-(4-methylpiperazino)-phenylamino)-pyrido[2,3-d]pyrimidin-7-one]
20 | < 100 nM | < 500 nM | < 1000 nM | COn1c(=O)c(-c2ccccc2Cl)cc2cnc(Nc3cccc(S(N)(=O)=O)c3)nc21 [Compound 6, 6-(2-Chlorophenyl)-8-methoxy-2-(3-sulfamoylphenylamino)-pyrido[2,3-d]pyrimidin-7-one]
21 | < 100 nM | < 500 nM | < 10000 nM | COn1c(=O)c(-c2cc(NC(C)=O)ccc2Cl)cc2cnc(Nc3ccccc3)nc21 [Compound 59]
22 | < 100 nM | – | < 1000 nM | COn1c(=O)c(-c2c(C)cccc2C)cc2cnc(Nc3cccc(S(N)(=O)=O)c3)nc21 [Compound 72, 6-(2,6-Dimethylphenyl)-8-methoxy-2-(3-sulfamoylphenylamino)-pyrido[2,3-d]pyrimidin-7-one]

Source: US8518958B2, “Pyrido [2,3-D] pyrimidines and their use as kinase inhibitors” (Forma Therapeutics, Inc., priority 2006, dated 2013)
